Experimental data taken from US8129197B2, “Cholesterol loaded insect cell membranes as test proteins” (SOLVO Biotechnológial ZRT., priority 2006, dated 2012).
Residue numbers refer to the chain shown, from its start. Read-outs that look alike come from different tables or passages of the source. One block for each compound: values may come before it.

Assays:
humanBSEP = humanBSEP (Homo sapiens, UniProt O95342)
Procedure: (§1) Measurement of the vesicular transport activity in case of Bsep: The transport activity measurements were carried out with purified membrane vesicles containing human, rat or mouse Bsep (ABCB11, sPgp) transporter isolated from baculovirus infected Sf9 (Spodoptera frugiperda)cells. The membrane preparations contain 5-16% closed, inside-out oriented, membrane vesicles. The transporter pumps the molecules inside of these vesicles. The vesicles can be separated by rapid filtration of the membrane suspension through a glass filter or through a nitrocellulose membrane (using vacuum).
(§2) The quantitative determination of the transported molecule can be done in several ways, like: HPLC, LC/MS, but also fluorescent or radioactive labeling is also suitable. Tritium labeled substrates were used in the assays and the mode of detection was liquid-scintillation.
(§3) Assay Design and Main Steps for Bsep • Prepare an appropriate concentration of membrane suspension in assay buffer; add the unlabeled and ^3H-labeled substrates to the suspension.

mouseBsep = molecular target: T1, mouseBsep (Mus musculus, UniProt Q9QY30)
T1 sequence (Q9QY30 1-1321): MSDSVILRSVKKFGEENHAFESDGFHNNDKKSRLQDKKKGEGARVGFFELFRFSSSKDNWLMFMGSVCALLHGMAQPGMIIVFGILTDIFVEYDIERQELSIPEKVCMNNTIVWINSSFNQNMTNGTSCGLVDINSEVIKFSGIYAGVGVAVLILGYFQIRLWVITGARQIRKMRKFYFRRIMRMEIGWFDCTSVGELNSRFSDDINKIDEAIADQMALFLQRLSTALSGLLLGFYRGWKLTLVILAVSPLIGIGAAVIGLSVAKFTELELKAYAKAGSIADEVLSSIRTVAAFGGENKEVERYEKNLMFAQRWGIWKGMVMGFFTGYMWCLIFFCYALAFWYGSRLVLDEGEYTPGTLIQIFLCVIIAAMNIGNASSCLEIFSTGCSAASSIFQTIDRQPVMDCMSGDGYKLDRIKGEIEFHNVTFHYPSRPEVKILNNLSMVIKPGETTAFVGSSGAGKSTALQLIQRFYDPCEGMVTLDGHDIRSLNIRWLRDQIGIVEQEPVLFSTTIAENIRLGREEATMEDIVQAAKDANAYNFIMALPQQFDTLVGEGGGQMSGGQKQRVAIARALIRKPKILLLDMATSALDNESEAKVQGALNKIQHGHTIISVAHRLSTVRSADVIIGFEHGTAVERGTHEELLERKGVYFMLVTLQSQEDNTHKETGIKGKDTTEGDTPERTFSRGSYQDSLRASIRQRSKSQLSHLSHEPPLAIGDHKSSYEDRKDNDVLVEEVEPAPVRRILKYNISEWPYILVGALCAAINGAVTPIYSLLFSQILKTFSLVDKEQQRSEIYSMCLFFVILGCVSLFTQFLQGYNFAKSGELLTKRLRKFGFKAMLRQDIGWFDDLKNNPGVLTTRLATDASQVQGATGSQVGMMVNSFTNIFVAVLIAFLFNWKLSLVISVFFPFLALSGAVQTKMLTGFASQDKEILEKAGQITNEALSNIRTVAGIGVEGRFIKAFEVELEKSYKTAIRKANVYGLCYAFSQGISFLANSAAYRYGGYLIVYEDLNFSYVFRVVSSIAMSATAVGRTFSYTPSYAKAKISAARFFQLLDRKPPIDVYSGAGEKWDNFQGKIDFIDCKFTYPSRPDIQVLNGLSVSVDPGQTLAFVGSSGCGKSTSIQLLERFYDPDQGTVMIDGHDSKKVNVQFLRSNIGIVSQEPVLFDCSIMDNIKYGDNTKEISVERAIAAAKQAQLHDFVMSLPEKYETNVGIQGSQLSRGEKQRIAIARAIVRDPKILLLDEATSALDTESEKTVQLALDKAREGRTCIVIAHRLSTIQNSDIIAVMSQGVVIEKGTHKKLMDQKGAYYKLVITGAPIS
Procedure: as §1, §2, §3

ratBsep = ratBsep (Rattus norvegicus, UniProt O70127)
Sequence of ratBsep (O70127 whole entry): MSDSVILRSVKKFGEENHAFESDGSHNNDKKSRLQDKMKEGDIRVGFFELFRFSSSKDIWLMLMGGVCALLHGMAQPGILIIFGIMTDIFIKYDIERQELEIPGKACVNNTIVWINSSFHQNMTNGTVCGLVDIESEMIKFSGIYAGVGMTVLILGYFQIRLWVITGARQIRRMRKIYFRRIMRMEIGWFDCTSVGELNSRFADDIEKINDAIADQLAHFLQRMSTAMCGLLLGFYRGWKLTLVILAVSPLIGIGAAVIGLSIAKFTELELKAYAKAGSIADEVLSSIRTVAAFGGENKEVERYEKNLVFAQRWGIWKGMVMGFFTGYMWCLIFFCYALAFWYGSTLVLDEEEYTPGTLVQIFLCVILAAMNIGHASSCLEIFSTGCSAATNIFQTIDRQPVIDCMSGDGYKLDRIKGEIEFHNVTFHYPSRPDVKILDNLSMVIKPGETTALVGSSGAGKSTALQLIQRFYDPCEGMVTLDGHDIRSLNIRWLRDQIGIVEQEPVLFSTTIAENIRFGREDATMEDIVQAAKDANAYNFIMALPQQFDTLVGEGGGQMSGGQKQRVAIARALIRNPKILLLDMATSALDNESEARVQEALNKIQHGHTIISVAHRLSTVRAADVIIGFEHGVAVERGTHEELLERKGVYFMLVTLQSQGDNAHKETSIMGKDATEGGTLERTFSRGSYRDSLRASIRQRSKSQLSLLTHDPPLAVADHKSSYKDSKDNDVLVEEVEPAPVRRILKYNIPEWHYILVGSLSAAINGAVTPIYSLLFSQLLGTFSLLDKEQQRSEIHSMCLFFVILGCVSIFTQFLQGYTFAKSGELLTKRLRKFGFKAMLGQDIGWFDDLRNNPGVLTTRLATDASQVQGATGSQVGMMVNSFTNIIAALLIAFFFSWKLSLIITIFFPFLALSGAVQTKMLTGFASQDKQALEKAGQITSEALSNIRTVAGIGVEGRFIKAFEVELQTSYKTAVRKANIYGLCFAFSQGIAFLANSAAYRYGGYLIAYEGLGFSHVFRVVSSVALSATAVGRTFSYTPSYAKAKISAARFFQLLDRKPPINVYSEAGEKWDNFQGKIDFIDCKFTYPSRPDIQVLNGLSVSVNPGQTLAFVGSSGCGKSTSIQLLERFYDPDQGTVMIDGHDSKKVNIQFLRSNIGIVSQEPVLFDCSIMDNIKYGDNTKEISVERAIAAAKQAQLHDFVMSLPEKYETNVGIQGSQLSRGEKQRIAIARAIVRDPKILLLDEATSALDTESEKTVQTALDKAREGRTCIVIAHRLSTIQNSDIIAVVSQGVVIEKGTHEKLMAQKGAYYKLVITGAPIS
Procedure: as §1, §2, §3

wild-type ABCG2 [1] = molecular target: T2, wild-type ABCG2 (Homo sapiens, UniProt Q9UNQ0); experiment: Vesicular transport assay, inside-out ABCG2-Sf9 membrane vesicles
T2 sequence (Q9UNQ0 1-655): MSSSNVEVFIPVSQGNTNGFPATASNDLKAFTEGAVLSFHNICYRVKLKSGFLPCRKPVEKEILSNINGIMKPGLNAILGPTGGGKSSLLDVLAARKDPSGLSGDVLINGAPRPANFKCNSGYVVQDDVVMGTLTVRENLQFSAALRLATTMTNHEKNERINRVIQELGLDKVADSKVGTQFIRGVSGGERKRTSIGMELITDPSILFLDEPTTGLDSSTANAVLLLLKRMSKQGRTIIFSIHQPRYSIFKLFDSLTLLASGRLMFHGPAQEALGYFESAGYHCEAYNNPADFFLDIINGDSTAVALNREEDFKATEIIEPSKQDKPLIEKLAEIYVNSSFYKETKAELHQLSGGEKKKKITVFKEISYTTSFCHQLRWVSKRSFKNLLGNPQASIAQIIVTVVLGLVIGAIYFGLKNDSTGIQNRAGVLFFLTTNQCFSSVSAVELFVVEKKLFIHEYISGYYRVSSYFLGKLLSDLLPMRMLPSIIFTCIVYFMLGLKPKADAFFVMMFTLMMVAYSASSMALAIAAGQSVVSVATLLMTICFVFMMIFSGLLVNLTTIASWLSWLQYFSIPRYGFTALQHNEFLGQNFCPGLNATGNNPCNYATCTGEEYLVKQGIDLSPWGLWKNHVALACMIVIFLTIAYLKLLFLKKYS
Procedure: as §1, with “activity:” for “activity in case of Bsep:”, “ABCG2” for “human, rat”, “or” for “or mouse”, “Bsep” for “Bsep (ABCB11, sPgp) transporter”, “frugiperda) cells or mammalian (ABCG2-M) cells.” for “frugiperda)cells.”, “rapidly filtrating” for “rapid filtration”
as §2
Measurement of the vesicular transport activity in case of ABCG2: More closely, as examples, inside-out membrane vesicles were incubated in the presence or absence of 4 mM ATP. […] The transport was stopped by addition of cold wash buffer (40 mM MOPS-Tris (pH 7.0), 70 mM KCl).
The transport was stopped by addition of cold wash buffer (10 mM Tris-HCl, pH 7.4; 250 mM sucrose and 100 mM NaCl).
For estrone-3-sulfate vesicular transport 10 mM Tris-HCl, (pH 7.4), 250 mM sucrose, and 10 mM MgCl2 containing buffer were incubated at 32° C. for 1 min. The transport was stopped by addition of cold wash buffer (10 mM Tris-HCl, pH 7.4; 250 mM sucrose and 100 mM NaCl).
The incubation mix was then rapidly filtered through class B glass fiber filters (pore size, 0.1 μm). Filters were washed with 5×200 μl of ice cold wash buffer and radioactivity retained on the filter was measured by liquid scintillation counting. ATP-dependent transport was calculated by subtracting the values obtained in the absence of ATP from those in the presence of ATP.
Exemplary Assay Design and Main Steps for ABCG2 • Prepare an appropriate concentration of membrane suspension in assay buffer; add the unlabeled and ^3H-labeled substrates to the suspension.

wild-type ABCG2 [2] = molecular target: T2, wild-type ABCG2; conditions: 2 min
Procedure: Following UV-irradiation, gel-electrophoresis and electroblotting, the labeled bands were visualized by Phospho-Imager.
Isolated Sf9 cell membranes, containing the same amount of wild-type ABCG2 protein were loaded with cholesterol by preincubation with 4 mM C-CD, as described in the Methods. Cholesterol-loaded membrane vesicles contained 50 μg cholesterol/mg membrane protein, while the control membranes contained 8 μg cholesterol/mg membrane protein.

R482G-ABCG2 = molecular target: T3, R482G-ABCG2 (Homo sapiens, UniProt Q9UNQ0, R482G); experiment: Vesicular MTX transport, Sf9 vesicles with R482G variant; assay type: biochemical; conditions: control and cholesterol-loaded Sf9 membrane vesicles
T3 construct: made in house; host or cells: Sf9 cells infected with recombinant baculovirus
T3 sequence (Q9UNQ0 1-655 R482G): T2 sequence (Q9UNQ0 1-655) with R482G
Procedure: MTX uptake was measured at 100 μM MTX concentration for 5 min at 37° C. in membrane vesicles containing the human wild-type ABCG2 (WT), or R482G-ABCG2 (G) transporter.
MTX and ESG uptake was measured for 5 min at 37° C. at 5 mM ATP in membrane vesicles containing the human wild-type ABCG2 (WT), or R482G-ABCG2 (G) transporter. […] The mean values±SD are presented.
Vesicular transport studies: In these experiments we carried out direct, ATP-dependent substrate transport measurements by using isolated inside-out membrane vesicles of ABCG2-expressing Sf9 cells.

ABCG2-R482T = molecular target: T4, ABCG2-R482T (Homo sapiens, UniProt Q9UNQ0, R482T); experiment: Vesicular MTX transport, Sf9 vesicles with R482T variant; assay type: biochemical; conditions: irrespective of the membrane cholesterol content
T4 construct: made in house; host or cells: Sf9 cells infected with recombinant baculovirus
T4 sequence (Q9UNQ0 1-655 R482T): T2 sequence (Q9UNQ0 1-655) with R482T

Sequence of humanBSEP (O95342 whole entry): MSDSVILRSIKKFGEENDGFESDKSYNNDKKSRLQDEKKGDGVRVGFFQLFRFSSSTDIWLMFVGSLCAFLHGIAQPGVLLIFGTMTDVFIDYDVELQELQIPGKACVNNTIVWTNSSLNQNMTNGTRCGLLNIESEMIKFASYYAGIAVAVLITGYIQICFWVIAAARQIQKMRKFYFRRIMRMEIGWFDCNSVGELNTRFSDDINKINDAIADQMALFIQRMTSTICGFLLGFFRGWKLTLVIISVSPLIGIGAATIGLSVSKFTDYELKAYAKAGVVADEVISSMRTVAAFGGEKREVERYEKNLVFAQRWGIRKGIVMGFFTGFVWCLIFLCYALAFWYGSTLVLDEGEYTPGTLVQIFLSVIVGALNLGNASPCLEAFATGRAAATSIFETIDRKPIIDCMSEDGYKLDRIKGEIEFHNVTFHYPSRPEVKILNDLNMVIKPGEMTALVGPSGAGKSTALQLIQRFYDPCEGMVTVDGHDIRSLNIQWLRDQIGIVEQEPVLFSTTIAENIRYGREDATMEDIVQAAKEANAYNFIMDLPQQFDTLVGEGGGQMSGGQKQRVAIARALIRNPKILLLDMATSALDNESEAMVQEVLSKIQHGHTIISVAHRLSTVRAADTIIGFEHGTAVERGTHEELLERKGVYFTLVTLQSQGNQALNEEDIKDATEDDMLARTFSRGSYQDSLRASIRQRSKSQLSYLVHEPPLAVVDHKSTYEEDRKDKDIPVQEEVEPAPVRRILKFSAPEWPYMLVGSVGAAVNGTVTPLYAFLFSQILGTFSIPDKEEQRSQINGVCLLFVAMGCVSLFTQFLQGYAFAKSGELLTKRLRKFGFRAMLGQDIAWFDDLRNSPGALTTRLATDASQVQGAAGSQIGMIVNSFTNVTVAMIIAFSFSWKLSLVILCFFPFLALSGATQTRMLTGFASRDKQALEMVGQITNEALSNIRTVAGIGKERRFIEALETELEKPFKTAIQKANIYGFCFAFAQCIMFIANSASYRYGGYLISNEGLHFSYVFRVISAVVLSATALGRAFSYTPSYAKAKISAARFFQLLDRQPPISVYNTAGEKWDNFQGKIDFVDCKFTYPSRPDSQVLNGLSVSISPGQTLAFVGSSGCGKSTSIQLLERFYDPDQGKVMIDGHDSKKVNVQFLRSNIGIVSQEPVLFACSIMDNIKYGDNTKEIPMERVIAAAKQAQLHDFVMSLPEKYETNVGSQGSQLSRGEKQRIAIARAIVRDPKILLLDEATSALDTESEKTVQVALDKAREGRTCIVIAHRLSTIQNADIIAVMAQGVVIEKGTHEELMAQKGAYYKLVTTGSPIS

SMILES: C[C@H](CCC(=O)NCCS(=O)(=O)O)[C@H]1CC[C@H]2[C@@H]3[C@H](O)C[C@@H]4C[C@H](O)CC[C@]4(C)[C@H]3C[C@H](O)[C@]12C [TC, Taurocholic acid]
- VMAX of taurocholate transport (humanBSEP; humanBSEP-Sf9 + Chol): 323 pmol TC/mg prot/min
- VMAX of taurocholate transport (humanBSEP; humanBSEP-Sf9 CTRL): 169.4 pmol TC/mg prot/min
- VMAX of taurocholate transport (mouseBsep; mouseBsep-Sf9 + Chol): 1843 pmol TC/mg prot/min
- VMAX of taurocholate transport (mouseBsep; mouseBsep-Sf9 CTRL): 1199 pmol TC/mg prot/min
- VMAX of taurocholate transport (ratBsep; ratBsep-Sf9 + Chol): 121.3 pmol TC/mg prot/min
- VMAX of taurocholate transport (ratBsep; ratBsep-Sf9 CTRL): 14.54 pmol TC/mg prot/min

- Increase of maximum transport rate of ABCG2 by increasing membrane cholesterol levels (wild-type ABCG2 [1]; human): up to 20 fold
- mean relative value of ABCG2 labeling (basic level of nucleotide trapping) after cholesterol loading (wild-type ABCG2 [2]): 105%
SMILES: CC(C)CCC[C@@H](C)[C@H]1CC[C@H]2[C@@H]3CC=C4C[C@@H](O)CC[C@]4(C)[C@H]3CC[C@]12C [cholesterol]

- Increase of Vmax of vesicular transport by cholesterol loading (wild-type ABCG2 [1]): six-fold
- MTX transport (in words) (R482G-ABCG2): very low
- MTX transport rate (ABCG2-R482T): below 50 pmoles/mg membrane protein/min
SMILES: CN(Cc1cnc2nc(N)nc(N)c2n1)c1ccc(C(=O)N[C@@H](CCC(=O)O)C(=O)O)cc1 [methotrexate]
